Here are results for seven compounds from PubChem BioAssay (NCI).

What all share (experiment): NCI tumour cell line growth inhibition, 48 h
In assay [1] the test system is IGROV1 ovarian.
The test system of assay [2] is NCI/ADR-RES ovarian.
In assay [3] the test system is NCI-H23 lung.
Assay [4] has as its system HOP-92 NSCLC.
For assay [5], the system named is HCT-15 colon.
The test system of assay [6] is OVCAR-4 ovarian.
Assay [7] deals with MCF7 breast.
Assay [8] relates to A498 renal.
Assay [9] relates to BT-549 breast.
The test system of assay [10] is SK-MEL-2 melanoma.
Assay [11] has as its system RPMI-8226 leukemia.
Assay [12] deals with NCI-H522 lung.
In assay [13] the test system is UO-31 renal.
Assay [14] relates to KM12 colon.
The subject of assay [15] is PC-3 prostate.
Assay [16] deals with SK-OV-3 ovarian.
The subject of assay [17] is MDA-MB-435.
Assay [18] relates to SN12C renal.
Assay [19] concerns MDA-N.
Assay [20] concerns SW-620 colon.

The structures appear in SMILES notation.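 A five-concentration, 48-hour dose response in 96-well plates underlies each endpoint, interpolated linearly between surrounding concentrations. TGI denotes the concentration required for complete inhibition of growth.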 Some results are limits rather than exact numbers.

Turning to `CC/C(Cl)=N\OC(=O)Nc1ccccc1OC(F)(F)F`, the TGI was 30.8 µM in assay [1]; 35.5 µM in assay [2]; 45.8 µM in assay [3]; 6.15 µM in [4]; greater than 24.2 µM in [5]; 41.6 µM in assay [6]. Moreover, the TGI was greater than 51.3 µM in assay [7]; 45.4 µM in assay [8]; 11.5 µM in assay [9]; 32.8 µM in [10]; 4.12 µM in [11]; 2.9 µM in assay [12]. For the same compound, the TGI stood at 18.2 µM in [13]; 41.6 µM in [14]; 33.5 µM in assay [15]; 37.3 µM in assay [16]; 40.7 µM in assay [17]; 14.2 µM in [18]. In assay [19], the TGI was 22.9 µM.

As for `Brc1ccccc1/C=C\C1(c2ccccc2)OCCO1`, the TGI in [1] stood at 29.3 µM; in assay [2] it was 32.7 µM; in [3], 20.5 µM; in assay [4], 46.9 µM; in assay [5], 19.5 µM; in assay [6], 14.8 µM. Besides, the TGI in [7] is 18.1 µM; in assay [8], 25.9 µM; in assay [9] it was 39 µM; in assay [10], 44.7 µM; in assay [11], 6.78 µM; in assay [12], 22.6 µM. The TGI in [13] stood at 20 µM; in assay [14], 7.17 µM; in [15] it was 34.1 µM; in assay [16], 26.5 µM; in [17], 24.6 µM; in assay [18] it was 27.4 µM. This compound showed a TGI in assay [19] of 25.3 µM.

In the case of `CC1=NN(C(=O)CC(=O)Nc2ccccc2C)C(=O)C1N=Nc1ccc(S(=O)(=O)c2ccc(N=NC3C(=O)N(C(=O)CC(=O)Nc4ccccc4C)N=C3C)cc2)cc1` (configuration not stated), the TGI in assay [1], in assay [2], in [3], in assay [4], in [5] and in assay [6] was greater than 100 µM in each case. The TGI in [7], in assay [8], in [9], in [10], in [11] and in assay [12] was greater than 100 µM each time. Also, the TGI in assay [13], in [14], in assay [15], in assay [16], in [17] and in assay [18] was greater than 100 µM throughout. For the same compound, the TGI in assay [19] is greater than 100 µM.

As to `O=c1c2c(sc3ccccc13)NCN(CCc1ccccc1)C2`, the TGI was greater than 100 µM in [1]; 99 µM in assay [2]; greater than 100 µM in assay [3]; greater than 100 µM in assay [4]; greater than 100 µM in assay [6]; greater than 100 µM in [7]. For the same compound, the TGI in assay [8] was greater than 100 µM; in assay [9] it was greater than 100 µM; in assay [10], 75.4 µM; in [11], 43 µM; in [12], greater than 100 µM; in assay [13] it was greater than 100 µM. The TGI in assay [14], in [15], in [20], in assay [16], in assay [17] and in [18] was greater than 100 µM in each case. For the same compound, the TGI in [19] was found to be 59.7 µM.

As for `Cn1c(=O)nc2n(CCO)ccnc-2c1=O`, the TGI in [1], in [2], in assay [3], in [4], in assay [5] and in assay [6] was greater than 100 µM each time. The TGI in [7], in assay [8], in [9], in [10], in assay [11] and in [12] was greater than 100 µM in each case. In addition, the TGI in assay [13], in [14], in assay [15], in [20], in [17] and in [18] was greater than 100 µM in each case. Also, in [19], the TGI was greater than 100 µM.

As to `Cc1ccc(-c2c(C#N)c(-c3ccc([N+](=O)[O-])cc3)c(C#N)c(=O)n2NS(=O)(=O)c2ccc(C)cc2)cc1`, the TGI in [1], in assay [2], in assay [4], in [5], in assay [6] and in assay [7] was greater than 100 µM in each case. Further, the TGI was greater than 100 µM in assay [8]; greater than 100 µM in assay [9]; greater than 100 µM in assay [10]; 47 µM in assay [11]; greater than 100 µM in [12]; greater than 100 µM in assay [14]. The TGI in [15], in assay [20], in assay [16], in assay [17], in assay [18] and in assay [19] was greater than 100 µM in each case.

For `CC1=Nc2nc3ccccc3n2C(C)(C)C1`, the TGI in assay [1], in [2], in assay [3], in assay [4], in assay [5] and in assay [6] was greater than 100 µM each time. Further, the TGI in assay [7], in assay [8], in [9], in assay [10], in assay [11] and in assay [12] was greater than 100 µM each time. Moreover, the TGI in assay [13], in assay [14], in assay [15], in assay [20], in [16] and in [17] was greater than 100 µM in each case. In [19], the TGI is greater than 100 µM.
